Tests used:
[1] = tested on: T47-D (ER-positive) breast tumor cell line; assay: Cell death by MTT assay, T47-D; format: cell-based, human; conditions: 24 hours, mean of four experiments
Method: (§1) The ER-positive breast tumor cell lines MCF-7 and T47-D and the HER2 positive breast tumor cell lines MDA-MB-453 and BT474 (also ER-positive) were incubated with the indicated concentration of each mentioned compound of formula (I) for 24 hours and then cell death was assessed using MTT assay.
(§2) For each cell line, the percentage of cell death (mean of four experiments for cell lines MCF-7 and T47-D, and two experiments for cell lines MDA-MB-453 and BT474) is given in view of the increasing concentration of each tested compound of the invention.
(§3) Cell viability was assessed using the 3-[4,5-dimethylthiazol-2-yl]-2,5-diphenyltetrazolium bromide (MTT) viability assay (1). In brief, cells (4×10^4 per well) were cultured for 20 h in flat-bottomed 96 well plates with various concentrations of the apoptosis inducer. Then 0.015 ml of MTT (5 mg/ml in PBS) was added to each well and incubated for 4 h at 37° C. Formazan salt precipitats were dissolved by adding 0.115 ml of isopropyl alcohol containing 1% formic acid (v/v), and the absorbance was measured at 570 nm.

[2] = tested on: MDA-MB-453 (HER2 positive) breast tumor cell line; assay: Cell death by MTT assay, MDA-MB-453; format: cell-based, human; conditions: 24 hours, mean of two experiments
Method: as §1, §2, §3

[3] = tested on: PI3K/AKT activity (AKT phosphorylation); assay: PI3K/AKT/mTOR pathway inhibitory activity: level of AKT phosphorylation in CEM cells over time; format: cell-based, human; conditions: 10 μM, FIGS. 7 and 8
Method: The CEM cell was incubated with 10 μM of each mentioned compound of formula (I) for the indicated times and then cells were lysed and 100 μg of protein was loaded per line and resolved by SDS-PAGE. The levels of AKT phosphorylation (hallmark of PI3K activation) and total AKT (loading control) were analyzed by Western blot and the amount of AKT phosphorylation relative to the total amount of protein AKT was quantified by densitometric analysis, the intensity of each band was scanned and the level of AKT phosphorylation was reported to the amount of whole AKT and the percentage of phosphorylated-AKT was depicted.
(§4) Immunoblots Excepted for immunoprecipitation experiments in which cells were lyzed with RIPA buffer, cells were lyzed for 30 min at 4° C. in Lysis buffer (25 mM HEPES pH 7.4, 1% v/v Triton X-100, 150 mM NaCl, 2 mM EGTA supplemented with a mix of protease inhibitors). Protein concentration was determined by the bicinchoninic acid method (Pierce, Rockford, Ill., USA) according to the manufacturer's protocol. Proteins were resolved by 8, 10 or 12% SDS-PAGE and transferred to a nitrocellulose membrane (GE Healthcare, Buckinghamshire, UK). The membrane was blocked 15 min with TBST (50 mM Tris, 160 mM NaCl, 0.05% v/v Tween 20, pH 7.4) containing 5% w/v dried skimmed milk (TBS™). Primary antibody was incubated overnight at 4° C. in TBS™. The membrane was intensively washed (TBST) and then the peroxydase-labeled anti-mouse IgG1 or IgG2a (CliniSciences, Nanterre, France) was added for 45 min. Proteins were visualized with the enhanced chemiluminescence substrate kit (ECL RevelBIOt®, Ozyme, Saint Quentin en Yvelines, France).

[4] = tested on: MDA-MB-231 cells; assay: Boyden chamber cell migration, MDA-MB-231 stimulated with CD95L; format: cell-based, human; conditions: MDA-MB-231, 1 μM, CD95L 100 ng/ml, 24 hours, FIG. 17B
Method: (§5) TNBC (MDA-MB-231 and BT549) cell lines were pre-incubated for 1 hour in presence or absence of non-cytotoxic amount of compound 25 (1 μM) and then treated or untreated with CD95L (100 ng/ml) for 24 hours. Cell migration was analyzed using Boyden chamber assay. Migrating Giemsa-stained cells were lysed and absorbance was measured at a wavelength of 560 nm. Values represent the means±SEM of three independently performed experiments. *p<0.05 as calculated using two-tailed Mann-Whitney test.
(§6) After membrane hydration of Boyden chambers (Millipore, Molsheim, France) containing 8 μm pore membranes, 10^5 cells were added to the top chamber. The bottom chamber was filled with low serum (1%)-containing medium in the presence or absence of cl-CD95L (100 ng/ml). Breast cancer cells were incubated for 24 h. To quantify invasion, cells were fixed with methanol and stained with Giemsa. Stained cells were then removed from the top-side of the membrane using a cotton-tipped swab and five representative pictures for each insert were taken of the invading cells from the reverse side. For each experiment, invading cells were lysed and absorbance at 560 nm was measured.

[5] = tested on: BT549 cells; assay: Boyden chamber cell migration, BT549 stimulated with CD95L; format: cell-based, human; conditions: BT549, 1 μM, CD95L 100 ng/ml, 24 hours, FIG. 17A
Method: as §5, §6

[6] = biological target: mTORC2 (Homo sapiens, UniProt P42345); assay: Immunoblot of mTORC2 substrate Akt-Ser473 in CEM cells; format: cell-based; parameters: endogenous in cells; host or cells: CEM cells; conditions: 2 hours, FIG. 16
Method: (§7) CEM cells (1·10^6 cells) were incubated with indicated concentrations of compound 25 for 2 hours and lysates of the cells were subjected to Western blot analysis. Inhibitory activity of compound 25 on mTORC1 substrates p70S6K-Thr389 and 4EBP1-Thr37 and 46 and on mTORC2 substrate Akt-Ser473 and on PDK1 substrate Akt-Thr308 was evaluated by immunoblotting. Total 4EBP1, p70S6K, Akt and […] serve as loading controls. The compounds of the invention and more particularly compound 25 may be competitive inhibitors of mTOR because they inhibit mTORC1 (4EBP1 and p70S6K) and mTORC2 substrates (AKT at S473) as shown in FIG. 16.
as §4, with “The membrane was intensively washed (TBST) and then the peroxydase-labeled anti-mouse IgG1 or IgG2a (CliniSciences, Nanterre, France) was added for 45 min. Proteins were visualized with the enhanced chemiluminescence substrate kit (ECL RevelBIOt®, Ozyme, Saint Quentin en Yvelines, France).” left out

[7] = biological target: mTORC1 (Homo sapiens, UniProt P42345); assay: Immunoblot of mTORC1 substrates p70S6K-Thr389 and 4EBP1-Thr37 and 46 in CEM cells; format: cell-based; parameters: AML cells (1.10^6 cells) deficient for TSC2 (TS2^−/−) or reconstituted with wild type TSC2; endogenous in cells; conditions: 2 hours, FIG. 16
Method: as §7
as §4, with “The membrane was intensively washed (TBST) and then the peroxydase-labeled anti-mouse IgG1 or IgG2a (CliniSciences, Nanterre, France) was added for 45 min. Proteins were visualized with the enhanced chemiluminescence substrate kit (ECL RevelBIOt®, Ozyme, Saint Quentin en Yvelines, France).” left out

O=[N+]([O-])C1=Cc2cc(Br)cc(Br)c2OC1c1ccc(Br)cc1 (centres unmarked) [Compound 25, 6,8-dibromo-2-(4-bromo-phenyl)-3-nitro-2H-chromene]
percentage of cell death ([1]; 6.25 μM): 85.31% | percentage of cell death ([1]; 12.5 μM): 91.27% | percentage of cell death ([1]; 25 μM): 90.23% | percentage of cell death ([1]; 50 μM): 91.25% | percentage of cell death ([2]; MDA-MB-453, 0.390625 μM): 0% | percentage of cell death ([2]; MDA-MB-453, 0.78125 μM): 9.09% | percentage of cell death ([2]; MDA-MB-453, 1.5625 μM): 81% | percentage of cell death ([2]; MDA-MB-453, 3.125 μM): 85.57% | percentage of cell death ([2]; MDA-MB-453, 6.25 μM): 89.213% | percentage of cell death ([2]; MDA-MB-453, 12.5 μM): 95.09% | percentage of cell death ([2]; MDA-MB-453, 25 μM): 99.35% | percentage of cell death ([2]; MDA-MB-453, 50 μM): 100.76% | inhibitory activity on PI3K/AKT (level of AKT phosphorylation) [3]: very strong inhibitors | migration of tumor cells stimulated with CD95L [4]: abrogate | migration of tumor cells stimulated with CD95L [5]: abrogate | inhibitory activity on mTORC2 substrate (AKT at S473) [6]: inhibit | inhibitory activity on mTORC1 substrates (4EBP1 and p70S6K) [7]: inhibit

From US9656984B2, “PI3K/AKT/mTOR inhibitors and pharmaceutical uses thereof” (UNIVERSITE DE RENNES 1, priority 2013, dated 2017)
